Assay results: patent US20230085307A1, “PYRIDAZINONE COMPOUND AND HERBICIDE” (NISSAN CHEMICAL CORPORATION, priority 2019, published 2023)

Assays:
Italian ryegrass [1] = assay: Test Example 5: herbicidal effect by foliage application, plastic box (Table 20, symbol K); assay type: in vivo, Italian ryegrass (Lolium multiflorum); conditions: 320 g/ha, evaluated three weeks after application
Procedure, shortened: (§1)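 Plants were sown into sterilized diluvial soil under about 1.5 cm cover and kept in a greenhouse at 25° C. to 30° C. Fourteen days on, foliage received an even spray of the diluted emulsion. Herbicidal or crop effect was judged three weeks afterwards.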

lambsquarters [2] = assay: Test Example 4: herbicidal effect by soil treatment (Table 19, symbol O); assay type: in vivo, lambsquarters (Chenopodium album)
Procedure, shortened: (§2)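 Pre-emergence style soil spray: seeds under ~1.5 cm sterilized diluvial soil received a uniform coat of emulsion diluted to the predetermined herbicide amount. Greenhouse 25–30° C; readout at week three on previously defined criteria.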

late watergrass = assay: Test Example 2: herbicidal activity, application during weed generation under submerged conditions (Table 17, symbol A); assay type: in vivo, late watergrass (Echinochloa oryzicola); conditions: AAH 320 g/ha; application during weed generation, submerged conditions
Procedure, shortened: (§3)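 Herbicide emulsion, diluted with water to the chosen amount, is applied onto 4 cm floodwater over alluvial soil where the weeds were co-sown and raised at 25–30° C. Application timing: 1–2 leaves. Assessment: three weeks afterwards.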

chickweed [3] = assay: Test Example 4: herbicidal effect by soil treatment (Table 19, symbol P); assay type: in vivo, common chickweed (Stellaria media)
Procedure, shortened: as §2

blackgrass [4] = assay: Test Example 4: herbicidal effect by soil treatment (Table 19, symbol J); assay type: in vivo, blackgrass (Alopecurus myosuroides)
Procedure, shortened: as §2

southern crabgrass [5] = assay: Test Example 5: herbicidal effect by foliage application, plastic box (Table 20, symbol F); assay type: in vivo, southern crabgrass (Digitaria ciliaris); conditions: 320 g/ha, evaluated three weeks after application
Procedure, shortened: as §1

redroot pigweed [6] = assay: Test Example 4: herbicidal effect by soil treatment (Table 19, symbol N); assay type: in vivo, redroot pigweed (Amaranthus retroflexus)
Procedure, shortened: as §2

lambsquarters [7] = assay: Test Example 5: herbicidal effect by foliage application, plastic box (Table 20, symbol O); assay type: in vivo, lambsquarters (Chenopodium album); conditions: 320 g/ha, evaluated three weeks after application
Procedure, shortened: as §1

wild oat [8] = assay: Test Example 5: herbicidal effect by foliage application, plastic box (Table 20, symbol I); assay type: in vivo, wild oat (Avena fatua); conditions: 320 g/ha, evaluated three weeks after application
Procedure, shortened: as §1

Japanese bulrush = assay: Test Example 2: herbicidal activity, application during weed generation under submerged conditions (Table 17, symbol B); assay type: in vivo, Japanese bulrush (Schoenoplectus juncoides); conditions: AAH 320 g/ha; application during weed generation, submerged conditions
Procedure, shortened: as §3

persian speedwell [9] = assay: Test Example 4: herbicidal effect by soil treatment (Table 19, symbol R); assay type: in vivo, Persian speedwell (Veronica persica)
Procedure, shortened: as §2

oval-leafed pondweed = assay: Test Example 2: herbicidal activity, application during weed generation under submerged conditions (Table 17, symbol C); assay type: in vivo, oval-leafed pondweed (Monochoria vaginalis); conditions: AAH 320 g/ha; application during weed generation, submerged conditions
Procedure, shortened: as §3

barnyard grass [10] = assay: Test Example 5: herbicidal effect by foliage application, plastic box (Table 20, symbol H); assay type: in vivo, barnyard grass (Echinochloa crus-galli); conditions: 320 g/ha, evaluated three weeks after application
Procedure, shortened: as §1

blackgrass [11] = assay: Test Example 5: herbicidal effect by foliage application, plastic box (Table 20, symbol J); assay type: in vivo, blackgrass (Alopecurus myosuroides); conditions: 320 g/ha, evaluated three weeks after application
Procedure, shortened: as §1

windgrass [12] = assay: Test Example 5: herbicidal effect by foliage application, plastic box (Table 20, symbol L); assay type: in vivo, windgrass (Apera spica-venti); conditions: 320 g/ha, evaluated three weeks after application
Procedure, shortened: as §1

green foxtail [13] = assay: Test Example 5: herbicidal effect by foliage application, plastic box (Table 20, symbol G); assay type: in vivo, green foxtail (Setaria viridis); conditions: 320 g/ha, evaluated three weeks after application
Procedure, shortened: as §1

southern crabgrass [14] = assay: Test Example 4: herbicidal effect by soil treatment (Table 19, symbol F); assay type: in vivo, southern crabgrass (Digitaria ciliaris)
Procedure, shortened: as §2

Chinese sprangletop = assay: Test Example 3: herbicidal effect by foliage application, Wagner pot (Table 18, symbol D); assay type: in vivo, chinese sprangletop (Leptochloa chinensis); conditions: 320 g/ha
Procedure, shortened: (§4)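 Plants were sown in alluvial soil held under 0.1–0.5 cm standing water and grown 14 days in a greenhouse at 25–30 °C. An emulsifiable formulation, water-diluted to the set dose, was then sprayed onto the foliage, and effects were scored three weeks later using previously defined criteria.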

wild oat [15] = assay: Test Example 4: herbicidal effect by soil treatment (Table 19, symbol I); assay type: in vivo, wild oat (Avena fatua)
Procedure, shortened: as §2

green foxtail [16] = assay: Test Example 4: herbicidal effect by soil treatment (Table 19, symbol G); assay type: in vivo, green foxtail (Setaria viridis)
Procedure, shortened: as §2

redroot pigweed [17] = assay: Test Example 5: herbicidal effect by foliage application, plastic box (Table 20, symbol N); assay type: in vivo, redroot pigweed (Amaranthus retroflexus); conditions: 320 g/ha, evaluated three weeks after application
Procedure, shortened: as §1

windgrass [18] = assay: Test Example 4: herbicidal effect by soil treatment (Table 19, symbol L); assay type: in vivo, windgrass (Apera spica-venti)
Procedure, shortened: as §2

barnyard grass [19] = assay: Test Example 4: herbicidal effect by soil treatment (Table 19, symbol H); assay type: in vivo, barnyard grass (Echinochloa crus-galli)
Procedure, shortened: as §2

velvetleaf [20] = assay: Test Example 4: herbicidal effect by soil treatment (Table 19, symbol M); assay type: in vivo, velvetleaf (Abutilon theophrasti)
Procedure, shortened: as §2

persian speedwell [21] = assay: Test Example 5: herbicidal effect by foliage application, plastic box (Table 20, symbol R); assay type: in vivo, Persian speedwell (Veronica persica); conditions: 320 g/ha, evaluated three weeks after application
Procedure, shortened: as §1

barnyard grass [22] = assay: Test Example 3: herbicidal effect by foliage application, Wagner pot (Table 18, symbol H); assay type: in vivo, barnyard grass (Echinochloa crus-galli); conditions: 320 g/ha
Procedure, shortened: as §4

rice flat sedge = assay: Test Example 3: herbicidal effect by foliage application, Wagner pot (Table 18, symbol E); assay type: in vivo, rice flat sedge (Cyperus iria); conditions: 320 g/ha
Procedure, shortened: as §4

chickweed [23] = assay: Test Example 5: herbicidal effect by foliage application, plastic box (Table 20, symbol P); assay type: in vivo, common chickweed (Stellaria media); conditions: 320 g/ha, evaluated three weeks after application
Procedure, shortened: as §1

Italian ryegrass [24] = assay: Test Example 4: herbicidal effect by soil treatment (Table 19, symbol K); assay type: in vivo, Italian ryegrass (Lolium multiflorum)
Procedure, shortened: as §2

velvetleaf [25] = assay: Test Example 5: herbicidal effect by foliage application, plastic box (Table 20, symbol M); assay type: in vivo, velvetleaf (Abutilon theophrasti); conditions: foliage application, 320 g/ha, evaluated three weeks after application
Procedure, shortened: as §1

[26] = foliage application after 14-day growth
[27] = amount of applied herbicide 320 g/ha

CCCC(=O)Oc1c(C)nn(C)c(=O)c1-c1c(-c2ccccc2OC)sc2c(Cl)cccc12 [4-022]
herbicidal effect on K: Italian ryegrass (evaluation grade 0-5) (Italian ryegrass [1]; [26]): 1 (Herbicidal rate of 5% or more and less than 20%)
Herbicidal effect by soil treatment, O: lambsquarters (lambsquarters [2]; [27]): 2 (Herbicidal rate of 20% or more and less than 40%)
herbicidal effect rating, A: late watergrass (late watergrass): 0 (Herbicidal rate of 5% or less (almost no effect))
Herbicidal effect by soil treatment, P: chickweed (chickweed [3]; [27]): 1 (Herbicidal rate of 5% or more and less than 20%)
Herbicidal effect by soil treatment, J: blackgrass (blackgrass [4]; [27]): 0 (Herbicidal rate of 5% or less (almost no effect))
herbicidal effect on F: southern crabgrass (evaluation grade 0-5) (southern crabgrass [5]; [26]): 0 (Herbicidal rate of 5% or less (almost no effect))
Herbicidal effect by soil treatment, N: redroot pigweed (redroot pigweed [6]; [27]): 3 (Herbicidal rate of 40% or more and less than 70%)
herbicidal effect on O: lambsquarters (evaluation grade 0-5) (lambsquarters [7]; [26]): 0 (Herbicidal rate of 5% or less (almost no effect))
herbicidal effect on I: wild oat (evaluation grade 0-5) (wild oat [8]; [26]): 0 (Herbicidal rate of 5% or less (almost no effect))
herbicidal effect rating, B: Japanese bulrush (Japanese bulrush): 2 (Herbicidal rate of 20% or more and less than 40%)
Herbicidal effect by soil treatment, R: persian speedwell (persian speedwell [9]; [27]): 0 (Herbicidal rate of 5% or less (almost no effect))
herbicidal effect rating, C: oval-leafed pondweed (oval-leafed pondweed): 0 (Herbicidal rate of 5% or less (almost no effect))
herbicidal effect on H: barnyard grass (evaluation grade 0-5) (barnyard grass [10]; [26]): 4 (Herbicidal rate of 70% or more and less than 90%)
herbicidal effect on J: blackgrass (evaluation grade 0-5) (blackgrass [11]; [26]): 0 (Herbicidal rate of 5% or less (almost no effect))
herbicidal effect on L: windgrass (evaluation grade 0-5) (windgrass [12]; [26]): 5 (Herbicidal rate of 90% or more (almost completely withered))
herbicidal effect on G: green foxtail (evaluation grade 0-5) (green foxtail [13]; [26]): 2 (Herbicidal rate of 20% or more and less than 40%)
Herbicidal effect by soil treatment, F: southern crabgrass (southern crabgrass [14]; [27]): 3 (Herbicidal rate of 40% or more and less than 70%)
herbicidal effect on Chinese sprangletop (D) (Chinese sprangletop): 5 (Herbicidal rate of 90% or more (almost completely withered))
Herbicidal effect by soil treatment, I: wild oat (wild oat [15]; [27]): 0 (Herbicidal rate of 5% or less (almost no effect))
Herbicidal effect by soil treatment, G: green foxtail (green foxtail [16]; [27]): 3 (Herbicidal rate of 40% or more and less than 70%)
herbicidal effect on N: redroot pigweed (evaluation grade 0-5) (redroot pigweed [17]; [26]): 3 (Herbicidal rate of 40% or more and less than 70%)
Herbicidal effect by soil treatment, L: windgrass (windgrass [18]; [27]): 0 (Herbicidal rate of 5% or less (almost no effect))
Herbicidal effect by soil treatment, H: barnyard grass (barnyard grass [19]; [27]): 3 (Herbicidal rate of 40% or more and less than 70%)
Herbicidal effect by soil treatment, M: velvetleaf (velvetleaf [20]; [27]): 0 (Herbicidal rate of 5% or less (almost no effect))
herbicidal effect on R: persian speedwell (evaluation grade 0-5) (persian speedwell [21]; [26]): 3 (Herbicidal rate of 40% or more and less than 70%)
herbicidal effect on barnyard grass (H) (barnyard grass [22]): 5 (Herbicidal rate of 90% or more (almost completely withered))
herbicidal effect on rice flat sedge (E) (rice flat sedge): 4 (Herbicidal rate of 70% or more and less than 90%)
herbicidal effect on P: chickweed (evaluation grade 0-5) (chickweed [23]; [26]): 5 (Herbicidal rate of 90% or more (almost completely withered))
Herbicidal effect by soil treatment, K: Italian ryegrass (Italian ryegrass [24]; [27]): 0 (Herbicidal rate of 5% or less (almost no effect))

CC(=O)COc1ccc(-c2sc3ccc(F)cc3c2-c2c(O)c(C)nn(C)c2=O)cc1 [2-068]
herbicidal effect on K: Italian ryegrass (Italian ryegrass [1]; foliage application): 3 (Herbicidal rate of 40% or more and less than 70%)
herbicidal effect rating, O: lambsquarters (lambsquarters [2]; 320 g/ha): 4 (Herbicidal rate of 70% or more and less than 90%)
herbicidal effect rating, A: late watergrass (late watergrass): 2 (Herbicidal rate of 20% or more and less than 40%)
herbicidal effect rating, P: chickweed (chickweed [3]; 320 g/ha): 0 (Herbicidal rate of 5% or less (almost no effect))
herbicidal effect rating, J: blackgrass (blackgrass [4]; 320 g/ha): 0 (Herbicidal rate of 5% or less (almost no effect))
herbicidal effect on F: southern crabgrass (southern crabgrass [5]; foliage application): 5 (Herbicidal rate of 90% or more (almost completely withered))
herbicidal effect rating, N: redroot pigweed (redroot pigweed [6]; 320 g/ha): 5 (Herbicidal rate of 90% or more (almost completely withered))
herbicidal effect on O: lambsquarters (lambsquarters [7]; foliage application): 5 (Herbicidal rate of 90% or more (almost completely withered))
herbicidal effect on I: wild oat (wild oat [8]; foliage application): 4 (Herbicidal rate of 70% or more and less than 90%)
herbicidal effect rating, B: Japanese bulrush (Japanese bulrush): 3 (Herbicidal rate of 40% or more and less than 70%)
herbicidal effect rating, R: persian speedwell (persian speedwell [9]; 320 g/ha): 4 (Herbicidal rate of 70% or more and less than 90%)
herbicidal effect rating, C: oval-leafed pondweed (oval-leafed pondweed): 3 (Herbicidal rate of 40% or more and less than 70%)
herbicidal effect on H: barnyard grass (barnyard grass [10]; foliage application): 5 (Herbicidal rate of 90% or more (almost completely withered))
herbicidal effect on J: blackgrass (blackgrass [11]; foliage application): 4 (Herbicidal rate of 70% or more and less than 90%)
herbicidal effect on L: windgrass (windgrass [12]; foliage application): 5 (Herbicidal rate of 90% or more (almost completely withered))
herbicidal effect on G: green foxtail (green foxtail [13]; foliage application): 5 (Herbicidal rate of 90% or more (almost completely withered))
herbicidal effect rating, F: southern crabgrass (southern crabgrass [14]; 320 g/ha): 1 (Herbicidal rate of 5% or more and less than 20%)
herbicidal effect on D (Chinese sprangletop), rating 0-5 (Chinese sprangletop): 4 (Herbicidal rate of 70% or more and less than 90%)
herbicidal effect rating, I: wild oat (wild oat [15]; 320 g/ha): 0 (Herbicidal rate of 5% or less (almost no effect))
herbicidal effect rating, G: green foxtail (green foxtail [16]; 320 g/ha): 4 (Herbicidal rate of 70% or more and less than 90%)
herbicidal effect on N: redroot pigweed (redroot pigweed [17]; foliage application): 5 (Herbicidal rate of 90% or more (almost completely withered))
herbicidal effect on M: velvetleaf (velvetleaf [25]): 5 (Herbicidal rate of 90% or more (almost completely withered))
herbicidal effect rating, L: windgrass (windgrass [18]; 320 g/ha): 0 (Herbicidal rate of 5% or less (almost no effect))
herbicidal effect rating, H: barnyard grass (barnyard grass [19]; 320 g/ha): 3 (Herbicidal rate of 40% or more and less than 70%)
herbicidal effect rating, M: velvetleaf (velvetleaf [20]; 320 g/ha): 5 (Herbicidal rate of 90% or more (almost completely withered))
herbicidal effect on R: persian speedwell (persian speedwell [21]; foliage application): 5 (Herbicidal rate of 90% or more (almost completely withered))
herbicidal effect on H (barnyard grass), rating 0-5 (barnyard grass [22]): 5 (Herbicidal rate of 90% or more (almost completely withered))
herbicidal effect on E (rice flat sedge), rating 0-5 (rice flat sedge): 5 (Herbicidal rate of 90% or more (almost completely withered))
herbicidal effect on P: chickweed (chickweed [23]; foliage application): 5 (Herbicidal rate of 90% or more (almost completely withered))
herbicidal effect rating, K: Italian ryegrass (Italian ryegrass [24]; 320 g/ha): 0 (Herbicidal rate of 5% or less (almost no effect))
